Results on 1 molecule are retold here after publication PMC6934184, “Selective DNA-PKcs inhibition extends the therapeutic index of localized radiotherapy and chemotherapy” (The Journal of Clinical Investigation, 2019).

In the assay the target is T1, PRKACA (PKA) (Homo sapiens, UniProt P17612).
T1 construct: purchased Thermo Fisher Scientific (Life Technologies) SelectScreen
Briefly: SelectScreen Z'LYTE. Type of assay: biochemical. An outline of the steps: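 Percent values come from Thermo SelectScreen profiling of NU5455, combining activity and binding assays. CSF1R was run in Z'LYTE format at Km app ATP, and CAMK1 in Adapta format with ATP listed at 10.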

`CN(C(=O)CN1CCOCC1)c1ccc2sc3c(-c4cccc5c(=O)cc(N6CC7CCC(C6)O7)oc45)cccc3c2c1` [NU5455] yielded an inhibition at 1 µM of 14%.

As usually defined, the inhibition is the relative decrease from the control value, in per cent. Lower therefore signals little suppression.
